Assay results as given in the NIST ThermoML archive (doi:10.1016/j.tca.2012.04.032).
± gives the expanded uncertainty stated by the source.

How the values were obtained:
[1] = Crystal; DTA
[2] = Molar enthalpy of transition or fusion; details: Crystal; DSC

**Q.** For `c1ccc(-c2nc(-c3ccccc3)c(-c3ccccc3)[nH]2)cc1` [2,4,5-triphenyl-1H-imidazole], which Triple point temperature [1] is on record?
**A.** The Triple point temperature was 550.95 ± 0.7 K.

**Q.** What about the “Molar enthalpy of transition or fusion” value [2] of the same compound?
**A.** The value was 8.92 ± 0.194 kcal/mol.

**Q.** Which Triple point temperature [1] does the source give for `c1ccc(-c2ncc[nH]2)cc1` [2-phenyl-1H-imidazole] here?
**A.** Its Triple point temperature is 419.95 ± 0.7 K.

**Q.** And the “Molar enthalpy of transition or fusion” value [2]?
**A.** The value was 4.26 ± 0.108 kcal/mol.

**Q.** With `c1ccc(-c2nc[nH]c2-c2ccccc2)cc1` [4,5-diphenylimidazole] as the compound, how does the Triple point temperature [1] read?
**A.** The Triple point temperature was 504.95 ± 0.7 K.

**Q.** What about the “Molar enthalpy of transition or fusion” value [2] of the same compound?
**A.** Its value is 7.73 ± 0.17 kcal/mol.

**Q.** What does the source list for `c1ccc2cc3ccccc3cc2c1` [anthracene]?
**A.** Triple point temperature [1]: 487.75 ± 0.7 K; Molar enthalpy of transition or fusion [2]: 6.1 ± 0.136 kcal/mol
